# Laboratory results reported in US20020026053A1, “Novel 3-(substituted) -2- indolinones compounds and use thereof as inhibitors of protein kinase activity” (priority 1997, published 2002).
# Key:
# PDGF-R = PDGF-R Assay (cellular ELISA, U1242 cells); type: cell-based; set-up: concentration or dose not given beside the values; conditions: protocol P.119
# How it was run: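 Cellular ELISA for receptor autophosphorylation: after 2 hr test-compound treatment of serum-free U1242 cells at 37°C, ligand is added for 5–10 min, cells are lysed (HNTG) and receptor captured by specific antibody. Anti-phosphotyrosine plus secondary antibody with ABTS colour read at 410/630 nm, compared with compound-free control cells.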
# FLK-1 receptor = assay: FLK-1 Assay (cellular/catalytic ELISA, VEGF-stimulated phosphotyrosine); type: cell-based; set-up: concentration or dose not given beside the values; conditions: protocol P.110
# How it was run: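 Receptor phosphotyrosine ELISA: Flk-1-expressing NIH3T3 C7#3 cells, starved overnight in 0.1% FBS medium, received compound (1:200 final dilution, 0.5% DMSO) for 2 h at 37 °C, then VEGF. Anti-FLK-1-captured receptor was probed with anti-phosphotyrosine UB40 and peroxidase/ABTS read-out, relative to cells without compound.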
Compound,PDGF Kinase % Inhibition (P.119) (PDGF-R),Flk Kinase % Inhibition (P.110) (FLK-1 receptor)
Cc1c(Br)ccc2c1C(=Cc1ccc(OCc3ccccc3)cc1)C(=O)N2 [10739/C04],19.3%,21.8%
Cc1c(Br)ccc2c1C(=CC1COc3ccccc3O1)C(=O)N2 (stereo not drawn) [10739/C05],31.4%,5.6%
Cc1c(Br)ccc2c1C(=Cc1ccc(O)cc1Cl)C(=O)N2 [10739/C06],33.8%,17.7%
Cc1c(Br)ccc2c1C(=Cc1cc(O)c(O)c(O)c1)C(=O)N2 [10739/C07],44.5%,−14.5%
COc1ccc(Oc2cccc(C=C3C(=O)Nc4ccc(Br)c(C)c43)c2)cc1 [10739/C08],11.0%,4.8%
Cc1c(Br)ccc2c1C(=Cc1ccc(OCCCN(C)C)cc1)C(=O)N2 [10739/C09],105.6%,10.0%
Cc1c(Br)ccc2c1C(=Cc1ccoc1)C(=O)N2 [10739/C10],−18.6%,−7.1%
Cc1c(Br)ccc2c1C(=Cc1ccc(CO)o1)C(=O)N2 [10739/C11],9.1%,70.6%
CNS(=O)(=O)c1ccc2c(c1)C(=Cc1ccc(OC)c(C)c1)C(=O)N2 [10739/D02],17.8%,25.6%
CNS(=O)(=O)c1ccc2c(c1)C(=Cc1cccc(OCc3ccccc3)c1)C(=O)N2 [10739/D03],14.4%,−18.3%
CNS(=O)(=O)c1ccc2c(c1)C(=Cc1ccc(OCc3ccccc3)cc1)C(=O)N2 [10739/D04],7.2%,11.8%
CNS(=O)(=O)c1ccc2c(c1)C(=CC1COc3ccccc3O1)C(=O)N2 (stereo not drawn) [10739/D05],−6.9%,12.2%
CNS(=O)(=O)c1ccc2c(c1)C(=Cc1ccc(O)cc1Cl)C(=O)N2 [10739/D06],−43.8%,9.0%
CNS(=O)(=O)c1ccc2c(c1)C(=Cc1cc(O)c(O)c(O)c1)C(=O)N2 [10739/D07],18.8%,−5.1%
CNS(=O)(=O)c1ccc2c(c1)C(=Cc1cccc(Oc3ccc(OC)cc3)c1)C(=O)N2 [10739/D08],5.7%,14.3%
CNS(=O)(=O)c1ccc2c(c1)C(=Cc1ccc(OCCCN(C)C)cc1)C(=O)N2 [10739/D09],4.7%,−32.8%
COc1ccc(C=C2C(=O)Nc3ccc(S(=O)(=O)Nc4ccc(C(F)(F)F)cc4)cc32)cc1C [10739/E02],18.3%,26.7%
O=C1Nc2ccc(S(=O)(=O)Nc3ccc(C(F)(F)F)cc3)cc2C1=Cc1cccc(OCc2ccccc2)c1 [10739/E03],2.8%,−119.0%
O=C1Nc2ccc(S(=O)(=O)Nc3ccc(C(F)(F)F)cc3)cc2C1=Cc1ccc(OCc2ccccc2)cc1 [10739/E04],5.2%,17.7%
O=C1Nc2ccc(S(=O)(=O)Nc3ccc(C(F)(F)F)cc3)cc2C1=CC1COc2ccccc2O1 (stereo not drawn) [10739/E05],10.6%,28.0%
O=C1Nc2ccc(S(=O)(=O)Nc3ccc(C(F)(F)F)cc3)cc2C1=Cc1ccc(O)cc1Cl [10739/E06],72.7%,34.3%

Compound,PDGF Kinase % Inhibition (P.119) (PDGF-R),Flk Kinase % Inhibition (P.110) (FLK-1 receptor)
O=C1Nc2ccc(S(=O)(=O)Nc3ccc(C(F)(F)F)cc3)cc2C1=Cc1cc(O)c(O)c(O)c1 [10739/E07],48.4%,10.0%
COc1ccc(Oc2cccc(C=C3C(=O)Nc4ccc(S(=O)(=O)Nc5ccc(C(F)(F)F)cc5)cc43)c2)cc1 [10739/E08],21.7%,17.2%
CN(C)CCCOc1ccc(C=C2C(=O)Nc3ccc(S(=O)(=O)Nc4ccc(C(F)(F)F)cc4)cc32)cc1 [10739/E09],18.3%,24.5%
O=C1Nc2ccc(S(=O)(=O)Nc3ccc(C(F)(F)F)cc3)cc2C1=Cc1ccoc1 [10739/E10],25.6%,11.2%
O=C1Nc2ccc(S(=O)(=O)Nc3ccc(C(F)(F)F)cc3)cc2C1=Cc1ccc(CO)o1 [10739/E11],15.9%,15.3%
COc1ccc(C=C2C(=O)Nc3ccc(S(=O)(=O)N4CCOCC4)cc32)cc1C [10739/F02],6.2%,25.5%
O=C1Nc2ccc(S(=O)(=O)N3CCOCC3)cc2C1=Cc1cccc(OCc2ccccc2)c1 [10739/F03],−7.4%,24.5%
O=C1Nc2ccc(S(=O)(=O)N3CCOCC3)cc2C1=Cc1ccc(OCc2ccccc2)cc1 [10739/F04],−4.0%,26.3%
O=C1Nc2ccc(S(=O)(=O)N3CCOCC3)cc2C1=CC1COc2ccccc2O1 (stereo not drawn) [10739/F05],−4.5%,8.7%
O=C1Nc2ccc(S(=O)(=O)N3CCOCC3)cc2C1=Cc1ccc(O)cc1Cl [10739/F06],9.1%,13.7%
O=C1Nc2ccc(S(=O)(=O)N3CCOCC3)cc2C1=Cc1cc(O)c(O)c(O)c1 [10739/F07],23.7%,0.6%
COc1ccc(Oc2cccc(C=C3C(=O)Nc4ccc(S(=O)(=O)N5CCOCC5)cc43)c2)cc1 [10739/F08],9.1%,7.0%
CN(C)CCCOc1ccc(C=C2C(=O)Nc3ccc(S(=O)(=O)N4CCOCC4)cc32)cc1 [10739/F09],3.3%,15.6%
O=C1Nc2ccc(S(=O)(=O)N3CCOCC3)cc2C1=Cc1ccoc1 [10739/F10],4.2%,12.3%
O=C1Nc2ccc(S(=O)(=O)N3CCOCC3)cc2C1=Cc1ccc(CO)o1 [10739/F11],0.8%,11.9%
COc1ccc(C=C2C(=O)Nc3ccc(CCCl)cc32)cc1C [10739/G02],−12.2%,5.9%
O=C1Nc2ccc(CCCl)cc2C1=Cc1cccc(OCc2ccccc2)c1 [10739/G03],−6.9%,1.9%
O=C1Nc2ccc(CCCl)cc2C1=Cc1ccc(OCc2ccccc2)cc1 [10739/G04],−3.5%,4.5%
O=C1Nc2ccc(CCCl)cc2C1=CC1COc2ccccc2O1 (stereo not drawn) [10739/G05],−5.9%,10.7%
O=C1Nc2ccc(CCCl)cc2C1=Cc1ccc(O)cc1Cl [10739/G06],−6.4%,14.0%
O=C1Nc2ccc(CCCl)cc2C1=Cc1cc(O)c(O)c(O)c1 [10739/G07],10.1%,−4.9%
